In brackets after ≈: the same amount, converted by molar mass. Read-outs that look alike come from different tables or passages of the source.

In series [1] the target is Epithelial Cell Kinase (ECK) (Homo sapiens, UniProt P29317). Briefly: biochemical.
In series [2] the target is recombinant human MEK 1 (MAPKK) and recombinant human ERK2 (MAPK). Briefly: Mitogen Activated Protein Kinase (MAPK) assay, two component coupled MEK 1 / ERK2.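 Note: MEK 1-activated ERK2 phosphorylates MBP or Myc peptide with 33P-ATP, filter capture and scintillation counting, inhibitor preincubated with ERK2 30 min at 0 °C, inhibition relative to uninhibited control.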 The note with it: separate entries for the same compound = evaluated more than one time. In kind it is biochemical.
The target of series [3] is T1, His-tagged cytoplasmic domain of EGFR (Homo sapiens, UniProt P00533).
T1 construct: containing the EGFR cDNA encoding amino acids 645 - 1186 preceded by Met-Ala-(His)6; made in house; host or cells: Sf9 cells, recombinant baculovirus vHcEGFR52
Briefly: Inhibition of Epidermal Growth Factor Receptor Kinase (EGF-R) using recombinant enzyme.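 Note: radiometric kinase assay measuring radiolabeled phosphate transfer from ATP onto the peptide tyrosine by scintillation counting, control is reaction without compound, background subtracted, IC50 from dose-response curve.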 In kind it is biochemical. The conditions noted are these: recombinant enzyme; RR-SRC peptide; average of the number of tests; read-out: IC50.

Another series concerns SW620. Briefly: Inhibition of cancer cell growth as measured by cell number, SW620.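 For all read-outs here: SW620 was included as a cell line with little or no EGFR or HER2/neu expression, in contrast to receptor-overexpressing lines.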 The note with it: Table 8; for IC50: Homo sapiens, SW-620, 48 h. In kind it is cell-based, human.
In a further series the test system is MCF7. Nature of the series: Inhibition of cancer cell growth as measured by cell number, MCF7.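 Note: MCF7 was included as a line with little or no EGFR or HER2/neu expression, in contrast to the receptor-overexpressing lines of the panel.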 The conditions noted are these: Homo sapiens, MCF7, 48 h, read-out: IC50 MCF7, cell number, Sulforhodamine B, 48 hours exposure; Table 8. It counts as cell-based, human.
The subject of a further series is LOX. Nature of the series: Inhibition of cancer cell growth as measured by cell number, LOX.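 Note: LOX cells served as a line with low or absent EGFR and HER2/neu expression, in contrast to receptor-overexpressing lines.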 In kind it is cell-based, human. The conditions noted are these: Homo sapiens, LOX, 48 h, read-out: IC50 LOX, cell number, Sulforhodamine B, 48 hours exposure; Table 8.
The subject of the next series is A431. Briefly: Inhibition of cancer cell growth as measured by cell number, A431.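 Note: human A431 line, picked because it overexpresses epidermal growth factor receptor (EGFR).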 In kind it is cell-based, human. The conditions noted are these: Homo sapiens, A-431, 48 h, Table 8.
A further series has as its system SKBR3. Nature of the series: Inhibition of cancer cell growth as measured by cell number, SKBR3.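 For all read-outs here: SK-BR-3 cells were selected as a line overexpressing HER2/neu.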 It counts as cell-based, human. The conditions noted are these: Table 8; for IC50: Homo sapiens.
In series [4] the target is T2, Kinase insert Domain containing Receptor (KDR: the catalytic domain of the VEGF receptor) (Homo sapiens, UniProt P35968).
T2 construct: KDR: the catalytic domain of the VEGF receptor
Nature of the series: Inhibition of Kinase insert Domain containing Receptor (KDR).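 Note: KDR phosphorylating a Glu:Tyr 4:1 copolymer with P32- or P33-labelled ATP, Mg++ and vanadate, read as acid-insoluble radiolabel, compared with compound-free reaction.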 It counts as biochemical. The note with it: pH 7.2; radioactive format; read-out: KDR IC50 (converted).
Experimental: In this standard pharmacological test procedure, KDR protein is mixed, in the presence or absence of a inhibitor compound, with a substrate peptide to be phosphorylated (a copolymer of glutamic acid and tyrosine, E:Y :: 4:1) and other cofactors such as Mg^++ and sodium vanadate (a protein tyrosine phosphatase inhibitor) in an appropriate buffer to maintain pH (7.2). ATP and a radioactive tracer (either P^32-or P^33- labeled ATP) is then add to initiate phosphorylation. After incubation, the radioactive phosphate associated with the acid-insoluble fraction of the assay mixture is then quantified as reflection of substrate phosphorylation.

The test system of series [5] is human epidermoid tumors (A431). Nature of the series: In vivo inhibition of the growth of human epidermoid tumors (A431). The note with it: Table 11; for S/T = No. Survivors/No. Treated: Day +28 post tumor staging. On the procedure:
Representative compounds of this invention (listed below) were evaluated in an in vivo standard pharmacological test procedure which measured its ability to inhibit the growth of human epidermoid tumors. […] BALB/c nu/nu female mice (Charles River, Wilmington, MA) were used in this in vivo standard pharmacological test procedure. A unit of 5 X 10^6 cells were injected SC into mice. When tumors attained a mass of between 100 and 150 mg, the mice were randomized into treatment groups (day zero). […] Control animals received no drug. Tumor mass was determined every 7 days [(length X width^2)/2] for 28 days post staging. Relative tumor growth (Mean tumor mass on days 7, 14, 21, and 28 divided by the mean tumor mass on day zero) is determined for each treatment group.

Where [6] appears, read: read-out: IC50 SW620, cell number, Sulforhodamine B, 48 hours exposure.
Where [7] appears, read: read-out: IC50 A431, cell number, Sulforhodamine B, 48 hours exposure.
Where [8] appears, read: SK-BR-3, 48 h, read-out: IC50 SKBR3, cell number, Sulforhodamine B, 48 hours exposure.
Where [9] appears, read: 80 mg/kg/dose IP on days 1,5 and 9.
Setting [10] is: 80 mg/kg/dose PO on days 1 through 10.
Setting [11] is: cell number, Sulforhodamine B, 48 hours exposure.

T2 sequence (P35968 834-1162 limits assumed): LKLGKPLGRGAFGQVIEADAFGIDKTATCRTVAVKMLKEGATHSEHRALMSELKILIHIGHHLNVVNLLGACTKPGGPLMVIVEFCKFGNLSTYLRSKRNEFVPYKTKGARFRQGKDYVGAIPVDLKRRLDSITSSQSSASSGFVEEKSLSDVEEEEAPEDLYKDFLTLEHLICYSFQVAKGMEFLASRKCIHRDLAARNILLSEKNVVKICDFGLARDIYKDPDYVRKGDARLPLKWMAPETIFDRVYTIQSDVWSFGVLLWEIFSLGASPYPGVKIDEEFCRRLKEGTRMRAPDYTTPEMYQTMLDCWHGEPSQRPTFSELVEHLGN
Epithelial Cell Kinase (ECK), sequence (P29317 24-976, species assumed): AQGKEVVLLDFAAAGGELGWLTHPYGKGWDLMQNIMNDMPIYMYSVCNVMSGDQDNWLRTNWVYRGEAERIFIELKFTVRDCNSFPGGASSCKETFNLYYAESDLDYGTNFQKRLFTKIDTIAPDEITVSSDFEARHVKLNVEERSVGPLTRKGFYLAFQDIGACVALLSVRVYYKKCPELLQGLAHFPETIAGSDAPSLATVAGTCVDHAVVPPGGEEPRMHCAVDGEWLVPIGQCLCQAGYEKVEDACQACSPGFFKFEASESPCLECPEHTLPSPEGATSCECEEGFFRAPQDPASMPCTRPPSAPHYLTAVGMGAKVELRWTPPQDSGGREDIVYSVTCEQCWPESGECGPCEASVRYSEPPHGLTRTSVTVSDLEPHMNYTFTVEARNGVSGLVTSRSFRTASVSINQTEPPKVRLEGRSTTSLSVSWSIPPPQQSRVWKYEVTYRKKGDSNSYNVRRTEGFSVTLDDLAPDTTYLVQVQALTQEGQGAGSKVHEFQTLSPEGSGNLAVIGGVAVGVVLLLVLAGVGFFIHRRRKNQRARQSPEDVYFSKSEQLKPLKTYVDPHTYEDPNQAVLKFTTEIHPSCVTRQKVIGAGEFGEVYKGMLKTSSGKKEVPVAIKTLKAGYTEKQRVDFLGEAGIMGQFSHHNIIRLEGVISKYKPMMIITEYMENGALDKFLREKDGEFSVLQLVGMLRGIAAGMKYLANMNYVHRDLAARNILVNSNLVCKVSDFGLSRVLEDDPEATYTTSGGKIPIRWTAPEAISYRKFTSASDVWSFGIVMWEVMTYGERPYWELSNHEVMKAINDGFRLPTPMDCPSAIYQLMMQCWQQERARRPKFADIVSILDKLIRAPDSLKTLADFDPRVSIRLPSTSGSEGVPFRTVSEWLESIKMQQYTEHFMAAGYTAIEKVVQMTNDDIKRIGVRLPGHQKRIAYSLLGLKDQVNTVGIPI
T1 sequence (P00533 669-1210): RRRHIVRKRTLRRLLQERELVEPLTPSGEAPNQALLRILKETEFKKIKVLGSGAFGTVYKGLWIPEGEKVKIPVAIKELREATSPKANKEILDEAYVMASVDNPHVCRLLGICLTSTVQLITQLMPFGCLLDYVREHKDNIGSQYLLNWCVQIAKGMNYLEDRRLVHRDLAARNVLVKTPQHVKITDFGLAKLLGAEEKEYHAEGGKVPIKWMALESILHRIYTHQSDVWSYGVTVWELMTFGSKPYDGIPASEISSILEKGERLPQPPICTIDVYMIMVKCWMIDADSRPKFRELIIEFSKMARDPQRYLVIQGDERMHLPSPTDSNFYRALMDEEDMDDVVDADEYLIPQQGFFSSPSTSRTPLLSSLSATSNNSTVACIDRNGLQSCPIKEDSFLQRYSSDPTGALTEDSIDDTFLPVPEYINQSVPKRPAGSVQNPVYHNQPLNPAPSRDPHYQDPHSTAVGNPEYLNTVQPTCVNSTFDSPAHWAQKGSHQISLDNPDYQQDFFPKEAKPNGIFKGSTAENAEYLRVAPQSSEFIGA
Text for LOX: (§1) The cell lines were chosen since they overexpressed epidermal growth factor receptor (EGFR) (i.e. A431) or HER2/neu (SKBR3), or had little to no expression of the these receptors (SW620, LOX, MCF7).
Text for MCF7: as §1
Text for SKBR3: as §1
Text for SW620: as §1

With `COc1ccc2c(Nc3cccc(Br)c3)c(C#N)cnc2c1` [Example 3, 4-[(3-Bromophenyl)amino]-7-methoxy-3-guinolinecarbonitrile], the IC50 is 28.2 µM in series [1] and above 100 µM in series [2].
With `N#Cc1cnc2ccc(NC(=O)CCl)cc2c1Nc1cccc(Br)c1` [Example 19, N-[4-[(3-Bromophenyl)amino]-3-cyano-6-quinolinyl]-2-chloroacetamide], the IC50 in series [1] amounted to 24.1 µM; in series [2] it was 29 µM.
For `N#Cc1cnc2cc(O)c(O)cc2c1Nc1cccc(Br)c1` [Example 39, 4-[(3-Bromophenyl)amino]-6,7-dihydroxy-3-quinolinecarbonitrile], the IC50 in [1] came out at 28.1 µM; in series [2], 40 µM.
For `N#Cc1cnc2cc3c(cc2c1Nc1cccc(Br)c1)OCO3` [Example 40, 8-[(3-Bromophenyl)amino]-[1,3]-dioxolo[4,5-g]quinoline-7-carbonitrile], the IC50 was 27.2 µM in [1] and above 100 µM in series [2].
For `COc1cc2c(Nc3ccc(Cl)cc3F)c(C#N)cnc2cc1OCCCN1CCOCC1` [Example 81, 4-(4-Chloro-2-fluoro-phenylamino)-6-methoxy-7-(3-morpholin-4-yl-propoxy)-quinoline-3-carbonitrile], the IC50 in series [1] is 0.425 µM; in series [2], 0.1 µM.
For `N#Cc1cnc2ccc(NC(=O)C=CCN3CCOCC3)cc2c1Nc1ccc(F)c(Cl)c1` [Example 147, N-{4-[(3-Chloro-4-fluorophenyl)amino]-3-cyano-6-quinolinyl} -4-morpholino-2-butenamide] the same measures were 43.1 µM and 80 µM.
On to `C=CC(=O)Nc1ccc2ncc(C#N)c(Nc3ccc(F)c(F)c3)c2c1` [Example 154, N-{3-Cyano-4-[(3,4-difluorophenyl)amino]-6-quinolinyl]-2-propenamide], for which the IC50 in series [3] amounted to 0.15 µM; in the series on SW620 (setting [6]) it was 0.55 µg/mL (≈ 1.57 µM); in the series with MCF7 it was 2.57 µg/mL (≈ 7.34 µM); with LOX, 0.44 µg/mL (≈ 1.26 µM); with A431 (setting [7]) it was 0.07 µg/mL (≈ 0.2 µM); in the series on SKBR3 (setting [8]), 0.05 µg/mL (≈ 0.143 µM). Also, the IC50 is above 85.6 µM in series [4] and 20 µM in [2].
In [1], `CN1CCN(CC#CC(=O)Nc2ccc3ncc(C#N)c(Nc4cccc(Br)c4)c3c2)CC1` [Example 190, N-[4-[(3-Bromophenyl)amino]-3-cyano-6-quinolinyl]-4-(N-methylpiperazino)-2-butynamide] came in with an IC50 of 39.7 µM.
For `COc1cc2ncc(C#N)c(Nc3ccc(F)c(Br)c3)c2cc1NC(=O)C=CCN(C)C` [Example 208, 4-Dimethylamino-but-2-enoic acid [4-(3-bromo-4-fluorophenylamino)-3-cyano-7-methoxy-quinolin-6-yl]-amide], the IC50 in series [3] is 0.0015 µM; in the series with SW620 (setting [6]) it was 0.453 µg/mL (≈ 0.909 µM); in the series with A431 (setting [7]), 0.067 µg/mL (≈ 0.134 µM); in the series with SKBR3 (setting [8]), 0.038 µg/mL (≈ 0.0763 µM); in [4], 20.1 µM; in [2] it was 13 µM. The “%T/C Day 7” value stood at 14% in series [5] (setting [9]) and 6% in series [5] (setting [10]). In addition, the “%T/C Day 14” value in [5] (setting [9]) came out at 15%; in series [5] (setting [10]), 6%. The “%T/C Day 21” value in series [5] (setting [9]) is 26%; in [5] (setting [10]), 8%. Moreover, the “%T/C Day 28” value is recorded as 32% in series [5] (setting [9]) and 10% in [5] (setting [10]). In addition, the “S/T = No. Survivors/No. Treated” value in series [5] (setting [9]) and in [5] (setting [10]) was 5/5 throughout.
On to `CCOc1cc2ncc(C#N)c(Nc3cccc(Br)c3)c2cc1NC(=O)C=CCN1CCOCC1` [Example 218, 4-Morpholin-4-yl-but-2-enoic acid [4-(3-bromo-phenylamino)-3-cyano-7-ethoxy-quinolin-6-yl]-amide], for which the IC50 is 1.85 µg/mL (≈ 3.46 µM) with SW620 (setting [6]), 0.029 µg/mL (≈ 0.0541 µM) with SKBR3 (setting [8]) and above 55.9 µM in [4]. Also, in the series on SW620 (setting [11]), the “IC50 SW620” value came out at 1.235 µg/mL (≈ 2.3 µM). In addition, the “IC50 SKBR3” value in the series on SKBR3 (setting [11]) was determined as 0.047 µg/mL (≈ 0.0876 µM).
On to `COc1cc2ncc(C#N)c(Nc3ccc(C)c(O)c3)c2cc1OC` [Example 229, 4-(3-Hydroxy-4-methyl-phenylamino)-6,7-dimethoxy-quinoline-3-carbonitrile], for which the concentration for half-maximal inhibition (IC50) with SW620 (cell number, Sulforhodamine B, 48 hours exposure, read-out: IC50 SW620) is above 5 µg/mL; in the series on A431 (cell number, Sulforhodamine B, 48 hours exposure, read-out: IC50 A431), 0.469 µg/mL (≈ 1.4 µM); in the series with SKBR3 (SK-BR-3, cell number, Sulforhodamine B, 48 hours exposure, read-out: IC50 SKBR3), above 5 µg/mL; in series [4], 0.596 µM; in series [2], below 1 µM.
With `COc1ccc(OC)c2c(Nc3cc(O)c(Cl)cc3F)c(C#N)cnc12` [Example 243, 4-(4-Chloro-2-fluoro-5-hydroxy-phenylamino)-5,8-dimethoxy-quinoline-3-carbonitrile], the IC50 is above 80.3 µM in [4] and above 100 µM in series [2].
For `COc1cc2ncc(C#N)c(Nc3ccc(O)c(Cl)c3)c2cc1OC` [Example 249, 4-(3-Chloro-4-hydroxy-phenylamino)-6,7-dimethoxy-quinoline-3-carbonitrile], in that order: above 28.1 µM and 15 µM.
For `COc1cc2ncc(C#N)c(Nc3ccccc3SC)c2cc1OC` [Example 250, 6,7-Dimethoxy-4-(2-methylsulfanyl-phenylamino)-quinoline-3-carbonitrile] the same measures were above 28.5 µM and 10 µM.
In the case of `COc1cccc2c(Nc3ccc(Cl)cc3F)c(C#N)cnc12` [Example 275, 4-(4-Chloro-2-fluoro-phenylamino)-8-methoxy-quinoline-3-carbonitrile], the IC50 is above 91.5 µM in [4] and above 100 µM in series [2].
In the case of `COc1cccc2c(Nc3cccc(N(C)C)c3)c(C#N)cnc12` [Example 277, 4-(3-Dimethylamino-phenylamino)-8-methoxy-quinoline-3-carbonitrile], the IC50 in [4] was above 94.2 µM; in series [2], above 100 µM.
For the molecule `COc1cccc2c(Nc3ccc(Br)c(O)c3)c(C#N)cnc12` [Example 278, 4-(4-Bromo-3-hydroxy-phenylamino)-8-methoxy-quinoline-3-carbonitrile], the figures for the IC50 in [4] and in series [2] were above 81 µM and above 100 µM, respectively.
For `COc1ccc(Nc2c(C#N)cnc3c(OC)cccc23)cc1O` [Example 279, 4-(3-Hydroxy-4-methoxy-phenylamino)-8-methoxy-quinoline-3-carbonitrile], in that order: above 93.4 µM and above 100 µM.
For `COc1cccc2c(Nc3c(F)cc(F)cc3F)c(C#N)cnc12` [Example 280, 8-Methoxy-4-(2,4,6-trifluoro-phenylamino)-quinoline-3-carbonitrile], the figures for the IC50 in series [4] and in [2] were above 91.1 µM and above 100 µM, respectively.
For `COc1ccc2ncc(C#N)c(Nc3ccc(Cl)cc3F)c2c1` [Example 283, 4-(4-Chloro-2-fluoro-phenylamino)-6-methoxy-quinoline-3-carbonitrile], the 50% inhibitory concentration (IC50) in series [1] is 9.15 µM; in series [2], above 100 µM.
As for `COc1cc2ncc(C#N)c(Nc3cc(Cl)ccc3O)c2cc1OC` [Example 290, 4-(5-Chloro-2-hydroxy-phenylamino)-6,7-dimethoxy-quinoline-3-carbonitrile], the IC50 in [4] is 28.1 µM; in series [2], 3 µM.
For `COc1cc2ncc(C#N)c(Nc3cc(Br)c(O)c(Br)c3)c2cc1OC` [Example 291, 4-(3,5-Dibromo-4-hydroxy-phenylamino)-6,7-dimethoxy-quinoline-3-carbonitrile] the same measures were 20.9 µM and above 100 µM.
For `COc1cc2ncc(C#N)c(Nc3cc(C)ccc3O)c2cc1OC` [Example 295, 4-(2-Hydroxy-5-methyl-phenylamino)-6,7-dimethoxy-quinoline-3-carbonitrile] the same measures were 29.8 µM and 50 µM.

The values above are taken from patent EP0973746B1, “SUBSTITUTED 3-CYANO QUINOLINES” (Wyeth Holdings Corporation, priority 1997, dated 1998).
